# Target: Furin (Homo sapiens, UniProt P09958)
# Sequence (P09958 whole entry): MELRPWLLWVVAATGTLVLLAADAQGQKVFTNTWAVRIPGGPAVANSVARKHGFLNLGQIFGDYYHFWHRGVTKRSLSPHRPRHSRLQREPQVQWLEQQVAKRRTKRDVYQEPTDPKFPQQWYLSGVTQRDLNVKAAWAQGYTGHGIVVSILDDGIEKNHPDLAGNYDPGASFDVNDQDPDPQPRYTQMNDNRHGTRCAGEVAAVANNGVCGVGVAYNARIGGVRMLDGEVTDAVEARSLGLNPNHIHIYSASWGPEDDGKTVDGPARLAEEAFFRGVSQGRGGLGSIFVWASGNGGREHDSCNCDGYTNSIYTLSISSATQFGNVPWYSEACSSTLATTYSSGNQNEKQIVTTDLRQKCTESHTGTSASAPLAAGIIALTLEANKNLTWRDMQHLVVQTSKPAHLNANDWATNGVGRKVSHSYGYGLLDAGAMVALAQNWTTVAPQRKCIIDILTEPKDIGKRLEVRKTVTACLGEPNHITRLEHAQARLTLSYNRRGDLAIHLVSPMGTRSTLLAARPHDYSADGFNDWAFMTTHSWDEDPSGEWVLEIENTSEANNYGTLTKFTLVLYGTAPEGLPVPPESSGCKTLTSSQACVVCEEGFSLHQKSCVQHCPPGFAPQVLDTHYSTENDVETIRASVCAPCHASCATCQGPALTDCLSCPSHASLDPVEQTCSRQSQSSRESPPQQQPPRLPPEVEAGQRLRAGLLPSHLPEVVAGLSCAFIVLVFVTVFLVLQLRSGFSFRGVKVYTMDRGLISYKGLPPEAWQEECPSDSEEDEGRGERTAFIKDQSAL
row,Structure (SMILES),Ki [nM]
1,C[C@@H](O)[C@H](N)C(=O)N1CCC[C@H]1C(=O)N[C@@H](CCCNC(=N)N)C(=O)N[C@@H](CCC(=O)O)C(=O)N[C@@H](CCCNC(=N)N)C(=O)N[C@@H](CCCNC(=N)N)C(=O)N[C@@H](CCCNC(=N)N)C(=O)N[C@@H](CCCCN)C(=O)N[C@@H](CCCCN)C(=O)N[C@@H](CCCNC(=N)N)C(=O)NCC(=O)O,> 100
2,CSCC[C@H](NC(=O)[C@H](CCCN=C(N)N)NC(=O)[C@H](CCC(N)=O)NC(=O)[C@@H]1CCCN1C(=O)[C@@H](N)[C@@H](C)O)C(=O)N[C@@H](CCCN=C(N)N)C(=O)N[C@@H](CCCN=C(N)N)C(=O)N[C@@H](CCCN=C(N)N)C(=O)N[C@@H](CCCCN)C(=O)N[C@@H](CCCCN)C(=O)N[C@@H](CCCNC(=N)N)C(=O)NCC(=O)O,> 100
3,CCCC[C@H](NC(=O)[C@H](CCCNC(=N)N)NC(=O)[C@H](CCCCN)NC(=O)[C@H](CCCCN)NC(=O)[C@H](CCCNC(=N)N)NC(=O)[C@H](CCCNC(=N)N)NC(=O)[C@H](CCCNC(=N)N)NC(=O)[C@H](C)NC(=O)[C@H](CCCNC(=N)N)NC(=O)[C@@H]1CCCN1C(=O)[C@@H](N)[C@@H](C)O)C(=O)O,81
4,C[C@@H](O)[C@H](N)C(=O)N1CCC[C@H]1C(=O)N[C@@H](CCC(N)=O)C(=O)N[C@@H](CCCNC(=N)N)C(=O)NCCC(=O)N[C@@H](CCCN=C(N)N)C(=O)N[C@@H](CCCN=C(N)N)C(=O)N[C@@H](CCCN=C(N)N)C(=O)N[C@@H](CCCCN)C(=O)N[C@@H](CCCCN)C(=O)N[C@@H](CCCNC(=N)N)C(=O)NCC(=O)O,> 100
5,C[C@@H](O)[C@H](N)C(=O)N1CCC[C@H]1C(=O)N[C@@H](CCC(N)=O)C(=O)N[C@@H](CCCNC(=N)N)C(=O)N[C@@H](CCCNC(N)=O)C(=O)N[C@@H](CCCNC(=N)N)C(=O)N[C@@H](CCCNC(=N)N)C(=O)N[C@@H](CCCNC(=N)N)C(=O)N[C@@H](CCCCN)C(=O)N[C@@H](CCCCN)C(=O)N[C@@H](CCCNC(=N)N)C(=O)NCC(=O)O,> 100
6,C[C@@H](O)[C@H](N)C(=O)N1CCC[C@H]1C(=O)N[C@@H](CCC(N)=O)C(=O)N[C@@H](CCCNC(=N)N)C(=O)NCCCCCC(=O)N[C@@H](CCCNC(=N)N)C(=O)N[C@@H](CCCNC(=N)N)C(=O)N[C@@H](CCCNC(=N)N)C(=O)N[C@@H](CCCCN)C(=O)N[C@@H](CCCCN)C(=O)N[C@@H](CCCNC(=N)N)C(=O)NCC(=O)O,> 100
7,C[C@H](NC(=O)[C@H](CCCNC(=N)N)NC(=O)[C@H](CCC(N)=O)NC(=O)[C@@H]1CCCN1C(=O)[C@@H](N)[C@@H](C)O)C(=O)N[C@@H](CCCNC(=N)N)C(=O)N[C@@H](CCCNC(=N)N)C(=O)N[C@@H](CCCNC(=N)N)C(=O)N[C@@H](CCCCN)C(=O)N[C@@H](CCCCN)C(=O)N[C@H](CCCNC(=N)N)C(=O)NCC(=O)O,> 100
8,C[C@@H](O)[C@H](N)C(=O)N1CCC[C@H]1C(=O)N[C@@H](CCC(N)=O)C(=O)N[C@@H](CCCNC(=N)N)C(=O)N[C@@H](CS)C(=O)N[C@@H](CCCNC(=N)N)C(=O)N[C@@H](CCCNC(=N)N)C(=O)N[C@@H](CCCNC(=N)N)C(=O)N[C@@H](CCCCN)C(=O)N[C@@H](CCCCN)C(=O)N[C@@H](CCCNC(=N)N)C(=O)NCC(=O)O,> 100
9,C[C@@H](O)[C@H](N)C(=O)N1CCC[C@H]1C(=O)N[C@@H](CCC(N)=O)C(=O)N[C@@H](CCCNC(=N)N)C(=O)N[C@@H](CCC(=O)O)C(=O)N[C@@H](CCCNC(=N)N)C(=O)N[C@@H](CCCNC(=N)N)C(=O)N[C@@H](CCCNC(=N)N)C(=O)N[C@@H](CCCCN)C(=O)N[C@@H](CCCCN)C(=O)N[C@@H](CCCNC(=N)N)C(=O)NCC(=O)O,> 100
10,C[C@@H](O)[C@H](N)C(=O)N1CCC[C@H]1C(=O)N[C@@H](CCC(N)=O)C(=O)N[C@@H](CCCN=C(N)N)C(=O)N[C@@H](CCCN=C(N)N)C(=O)N[C@@H](CCCN=C(N)N)C(=O)N[C@@H](CCCN=C(N)N)C(=O)N[C@@H](CCCN=C(N)N)C(=O)N[C@@H](CCCCN)C(=O)N[C@@H](CCCCN)C(=O)N[C@@H](CCCNC(=N)N)C(=O)NCC(=O)O,> 100
11,C[C@@H](O)[C@H](N)C(=O)N1CCC[C@H]1C(=O)N[C@@H](CCC(N)=O)C(=O)N[C@@H](CCCN=C(N)N)C(=O)N[C@H](CCCCN)C(=O)N[C@@H](CCCN=C(N)N)C(=O)N[C@@H](CCCN=C(N)N)C(=O)N[C@@H](CCCN=C(N)N)C(=O)N[C@@H](CCCCN)C(=O)N[C@@H](CCCCN)C(=O)N[C@@H](CCCNC(=N)N)C(=O)NCC(=O)O,> 100
12,C[C@@H](O)[C@H](N)C(=O)N1CCC[C@H]1C(=O)N[C@@H](CCC(N)=O)C(=O)N[C@@H](CCCN=C(N)N)C(=O)N[C@H](CCCN=C(N)N)C(=O)N[C@@H](CCCN=C(N)N)C(=O)N[C@@H](CCCN=C(N)N)C(=O)N[C@@H](CCCN=C(N)N)C(=O)N[C@@H](CCCCN)C(=O)N[C@@H](CCCCN)C(=O)N[C@@H](CCCNC(=N)N)C(=O)NCC(=O)O,> 100
13,C[C@@H](O)[C@H](N)C(=O)N1CCC[C@H]1C(=O)N[C@@H](CCC(N)=O)C(=O)N[C@@H](CCCN=C(N)N)C(=O)N[C@@H](CCCCN)C(=O)N[C@@H](CCCN=C(N)N)C(=O)N[C@@H](CCCN=C(N)N)C(=O)N[C@@H](CCCN=C(N)N)C(=O)N[C@@H](CCCCN)C(=O)N[C@@H](CCCCN)C(=O)N[C@@H](CCCNC(=N)N)C(=O)NCC(=O)O,> 100
14,C[C@@H](O)[C@H](N)C(=O)N1CCC[C@H]1C(=O)N[C@@H](CCC(N)=O)C(=O)N[C@@H](CCCN=C(N)N)C(=O)N[C@H](CCC(=O)O)C(=O)N[C@@H](CCCN=C(N)N)C(=O)N[C@@H](CCCN=C(N)N)C(=O)N[C@@H](CCCN=C(N)N)C(=O)N[C@@H](CCCCN)C(=O)N[C@@H](CCCCN)C(=O)N[C@@H](CCCNC(=N)N)C(=O)NCC(=O)O,> 100
15,CC(C)C[C@H](NC(=O)[C@H](CCCN=C(N)N)NC(=O)[C@H](CCCCN)NC(=O)[C@H](CCCCN)NC(=O)[C@H](CCCN=C(N)N)NC(=O)[C@H](CCCN=C(N)N)NC(=O)[C@H](CCCN=C(N)N)NC(=O)[C@H](C)NC(=O)[C@H](CCCN=C(N)N)NC(=O)[C@@H]1CCCN1C(=O)[C@@H](N)[C@@H](C)O)C(=O)O,> 100
16,C[C@H](NC(=O)[C@H](CCCNC(=N)N)NC(=O)[C@H](CCC(N)=O)NC(=O)[C@@H]1CCCN1C(=O)[C@@H](N)[C@@H](C)O)C(=O)N[C@@H](CCCNC(=N)N)C(=O)N[C@@H](CCCNC(=N)N)C(=O)N[C@@H](CCCNC(=N)N)C(=O)N[C@@H](CCCCN)C(=O)N[C@@H](CCCCN)C(=O)N[C@H](CCCCN)C(=O)NCC(=O)O,> 100
17,C[C@H](NC(=O)[C@H](CCCN=C(N)N)NC(=O)[C@H](CCC(N)=O)NC(=O)[C@@H]1CCCN1C(=O)[C@@H](N)[C@@H](C)O)C(=O)N[C@@H](CCCN=C(N)N)C(=O)N[C@@H](CCCN=C(N)N)C(=O)N[C@@H](CCCN=C(N)N)C(=O)N[C@@H](CCCCN)C(=O)N[C@@H](CCCCN)C(=O)N[C@@H](CCCNC(N)=O)C(=O)NCC(=O)O,> 100
18,C[C@@H](O)[C@H](N)C(=O)N1CCC[C@H]1C(=O)N[C@@H](CCC(N)=O)C(=O)N[C@@H](CCCN=C(N)N)C(=O)NC1(C(=O)N[C@@H](CCCN=C(N)N)C(=O)N[C@@H](CCCN=C(N)N)C(=O)N[C@@H](CCCN=C(N)N)C(=O)N[C@@H](CCCCN)C(=O)N[C@@H](CCCCN)C(=O)N[C@@H](CCCNC(=N)N)C(=O)NCC(=O)O)CCCC1,> 100
19,CC(C)C[C@H](NC(=O)[C@H](CCCNC(=N)N)NC(=O)[C@H](CCC(N)=O)NC(=O)[C@@H]1CCCN1C(=O)[C@@H](N)[C@@H](C)O)C(=O)N[C@@H](CCCNC(=N)N)C(=O)N[C@@H](CCCNC(=N)N)C(=O)N[C@@H](CCCNC(=N)N)C(=O)N[C@@H](CCCCN)C(=O)N[C@@H](CCCCN)C(=O)N[C@@H](CCCNC(=N)N)C(=O)NCC(=O)O,> 100
